Source: publication PMC7481290, “Halogenation as a tool to tune antimicrobial activity of peptoids” (Scientific Reports, 2020)
Values after ≈ are worked out from the molar mass of the structure shown. Non-standard residues stand in square brackets, D forms with d. Residues, ends and D or L forms follow the SMILES beside them. N(4-Br-benzyl)Gly = O=C(O)CNCc1ccc(Br)cc1; NBzl(4-I)Gly = O=C(O)CNCc1ccc(I)cc1; Nphe = O=C(O)CNCc1ccccc1; Nlys = NCCCCNCC(=O)O

Key:
E. coli ATCC 25922 = type: cell-based, Escherichia coli; details: ATCC 25922, 18 h
How it was run: (§1)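 Broth microdilution per CLSI in MHB II, final inoculum 5 × 10^5 CFU/mL, with twofold peptoid dilutions. Incubation was 18 h at 37 °C in ambient air. MIC was taken as the lowest concentration without visible growth, from two experiments on different days in technical triplicate.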

[1] = Critical aggregation concentration from SAXS fit analysis; type: physicochemical
Experimental: SAXS experiments of the 10-mer peptoids were performed at the automated BM29 bioSAXS beamline at the European Synchrotron Radiation Facility (ESRF) in Grenoble, France[45]. The data was obtained using an energy of 12.5 keV and a detector distance of 2.87 m, covering a q range ( q=4πsin(θ/2)/λ ), where θ is the scattering angle and λ is the X-ray wavelength) of about 0.0047 to 0.5 Å^−1. The data set was calibrated to an absolute intensity scale using water as a primary standard. 40 µL samples were run through a capillary using the flow mode of the automated sample changer. SAXS data was collected in ten successive frames of 0.5 s each to monitor radiation damage and the data reduction was done using the standard tool at BM29[47].
The SAXS experiments on the fully iodinated 6-, 8-, and 12-mers to determine the CAC of the compounds were performed using a Bruker NANOSTAR equipped with a microfocus X-ray source (IμS Cu, Incoatec, Germany) and a VÅNTEC-2000 detector. Raw scattering data was calibrated to absolute intensity scale using water as a primary standard and radially averaged in order to obtain the 1D scattered intensity profile as a function of the scattering vector, with a wavelength of 1.54 Å.
The modelling fit analysis of the scattering data is explained in detail in the supplementary information.

[2] = tested on: Methicillin-resistant S. epidermidis ATCC 51625; type: cell-based, Staphylococcus epidermidis; details: ATCC 51625, 18 h
How it was run: as §1

[3] = tested on: Methicillin-resistant S. epidermidis ET-024; type: cell-based, Staphylococcus epidermidis; details: Methicillin-resistant ET-024, 18 h
How it was run: as §1

[4] = tested on: selected bacterial strains (S. aureus, S. epidermidis, E. coli, P. aeruginosa); type: cell-based
Experimental: All 36 peptoids were tested against seven bacterial strains: five Gram-positive (Staphylococcus aureus ATCC 25923 and ATCC 29213, methicillin-resistant Staphylococcus aureus USA 300, methicillin-resistant Staphylococcus epidermidis ET-024 and ATCC 51625) and two Gram-negative (Escherichia coli ATCC 25922, Pseudomonas aeruginosa PA01) (Table 1).
Bacterial growth inhibition was determined by using broth microdilution according to the Clinical Laboratory Standards Institute[43]. The antibacterial activity of peptoids was tested against S. aureus ATCC 25923, ATCC29213, and methicillin resistant S. aureus USA 300, methicillin resistant S. epidermidis ATCC 51625, a biofilm producing methicillin resistant S. epidermidis ET-024[44], P. aeruginosa Pa01 (H103), and E. coli ATCC 25922. Bacteria, grown on agar plates for 18 h at 37 °C, were diluted to ∼1 × 10^8 CFU/mL in Mueller‐Hinton Broth II (MHB II). Twofold serial dilutions of peptoids in MHB II were inoculated with bacteria to achieve a final concentration of 5 × 10^5 CFU/mL in polypropylene 96 U‐well microtiter plates (Corning 3,897; ThermoFisher Scientific, Roskilde), followed by incubation at 37 °C in ambient air for 18 h. The MIC values were determined as the lowest concentration showing no visible bacterial growth. Experiments were performed twice (in technical triplicates) on 2 different days.

[5] = tested on: P. aeruginosa PA01 (H103); type: cell-based, Pseudomonas aeruginosa; details: H103, 18 h
How it was run: as §1

S. aureus ATCC 29213 = type: cell-based, Staphylococcus aureus; details: ATCC 29213, 18 h
How it was run: as §1

S. aureus ATCC 25923 = type: cell-based, Staphylococcus aureus; details: ATCC 25923, 18 h
How it was run: as §1

[6] = tested on: Methicillin-resistant S. aureus USA 300; type: cell-based, Staphylococcus aureus; details: USA 300, 18 h
How it was run: as §1

Row | SMILES | Minimal inhibitory concentration EC^f (E. coli ATCC 25922) | critical aggregation concentration (CAC) [1] | Minimal inhibitory concentration MRSE^e [2] | Minimal inhibitory concentration MRSE^d [3] | antimicrobial potency against the selected bacterial strains, in words [4] | Minimal inhibitory concentration PA^g [5] | Minimal inhibitory concentration SA^b (S. aureus ATCC 29213) | Minimal inhibitory concentration SA^a (S. aureus ATCC 25923) | Minimal inhibitory concentration MRSA^c [6] | MICs, range across strains ([4]; range matches Gram-positive strains of Table 1)
1 | NCCCCNCC(=O)N(CC(=O)N(CCCCN)CC(=O)N(CC(=O)N(CCCCN)CC(=O)N(CC(=O)N(CCCCN)CC(=O)N(CC(=O)N(CCCCN)CC(=O)N(CC(=O)N(CCCCN)CC(=O)N(CC(N)=O)Cc1ccc(I)cc1)Cc1ccc(I)cc1)Cc1ccc(I)cc1)Cc1ccc(I)cc1)Cc1ccc(I)cc1)Cc1ccc(I)cc1 [Compound 32] (H-[Nlys][NBzl(4-I)Gly][Nlys][NBzl(4-I)Gly][Nlys][NBzl(4-I)Gly][Nlys][NBzl(4-I)Gly][Nlys][NBzl(4-I)Gly][Nlys][NBzl(4-I)Gly]-NH2) | > 512 µg/mL | 0.4 mg/mL | 16 µg/mL (≈ 6.6 µM) | 32 µg/mL (≈ 13.2 µM) | the activity was lost | > 512 µg/mL | 128 µg/mL (≈ 52.8 µM) | 64 µg/mL (≈ 26.4 µM) | 32 µg/mL (≈ 13.2 µM) | 
2 | NCCCCNCC(=O)N(CC(=O)N(CCCCN)CC(=O)N(CC(=O)N(CCCCN)CC(=O)N(CC(=O)N(CCCCN)CC(=O)N(CC(=O)N(CCCCN)CC(=O)N(CC(N)=O)Cc1ccc(I)cc1)Cc1ccc(I)cc1)Cc1ccc(I)cc1)Cc1ccc(I)cc1)Cc1ccc(I)cc1 [Compound 23] (H-[Nlys][NBzl(4-I)Gly][Nlys][NBzl(4-I)Gly][Nlys][NBzl(4-I)Gly][Nlys][NBzl(4-I)Gly][Nlys][NBzl(4-I)Gly]-NH2) | > 512 µg/mL | 0.4 mg/mL | 8 µg/mL (≈ 3.95 µM) | 4 µg/mL (≈ 1.98 µM) | the activity was lost | > 512 µg/mL | 32 µg/mL (≈ 15.8 µM) | 32 µg/mL (≈ 15.8 µM) | 16 µg/mL (≈ 7.91 µM) | 
3 | NCCCCNCC(=O)N(CC(=O)N(CCCCN)CC(=O)N(CC(=O)N(CCCCN)CC(=O)N(CC(=O)N(CCCCN)CC(=O)N(CC(=O)N(CCCCN)CC(=O)N(CC(N)=O)Cc1ccc(Br)cc1)Cc1ccccc1)Cc1ccc(Br)cc1)Cc1ccccc1)Cc1ccc(Br)cc1 [Compound 26] (H-[Nlys][N(4-Br-benzyl)Gly][Nlys][Nphe][Nlys][N(4-Br-benzyl)Gly][Nlys][Nphe][Nlys][N(4-Br-benzyl)Gly]-NH2) | 256 µg/mL (≈ 157 µM) | > 5 mg/mL | 1 µg/mL (≈ 0.613 µM) | 1 µg/mL (≈ 0.613 µM) |  | 512 µg/mL (≈ 314 µM) | 4 µg/mL (≈ 2.45 µM) | 4 µg/mL (≈ 2.45 µM) | 8 µg/mL (≈ 4.91 µM) | 1 to 8 µg/mL
4 | NCCCCNCC(=O)N(CC(=O)N(CCCCN)CC(=O)N(CC(=O)N(CCCCN)CC(=O)N(CC(=O)N(CCCCN)CC(=O)N(CC(N)=O)Cc1ccccc1)Cc1ccccc1)Cc1ccccc1)Cc1ccccc1 [Compound 10] (H-[Nlys][Nphe][Nlys][Nphe][Nlys][Nphe][Nlys][Nphe]-NH2) | 256 µg/mL (≈ 229 µM) |  | 256 µg/mL (≈ 229 µM) | 256 µg/mL (≈ 229 µM) | inactive | > 512 µg/mL | > 512 µg/mL | > 512 µg/mL | > 512 µg/mL | 
